Columns and labels:
[1] = Stability in human liver microsomes; format: in vitro ADME; settings: 37° C., NADPH
Description: Half-Life Human Microsomes:
(§1) Compounds were evaluated for stability in human liver microsomes. A 10 mM stock solution of the compound being evaluated was prepared in DMSO and diluted with water:acetonitrile (1:1) to a concentration of 1 mM. A working concentration of 100 μM was prepared by further dilution with water:acetonitrile (1:1). To make the preincubation mixture, 2.5 μL of the diluted compound was combined with 75 μL of human liver microsomes at 3.33 mg/mL, and 85 μL of 100 mM potassium phosphate buffer, and this mixture was pre-incubated for 10 min at 37° C. To make the 60 minute mixture without cofactor, 32.5 μL of the preincubation mixture was combined with 17.5 μL of 100 mM potassium phosphate buffer and incubated for 60 min at 37° C. To make the 0 min sample with cofactor (NADPH), 16.25 μL of the preincubation mixture was combined with 200 μL of acetonitrile containing internal standard and 8.75 μL of cofactor (NADPH). To make the incubation mixture, 62 μL of cofactor (2.85 mM) was combined with the remaining incubation mixture, and incubated for 60 min at 37° C. To prepare the sample mixture to be evaluated, 25 μL incubation mixture was combined with 200 μL of acetonitrile containing internal standard and vortexed for 5 min at 1200 rpm, then centrifuged for 10 min at 4000 rpm. The supernatant was diluted 2 fold with water and injected on LC-MS/MS. The sample mixture was evaluated by LC-MS/MS using 10 mM ammonium acetate with 0.100 FA as the aqueous mobile phase, and methanol as the organic mobile phase.

[2] = Stability in mouse liver microsomes; format: in vitro ADME
Description: as §1
Half-Life Mouse Microsomes:
Compounds were evaluated in mouse liver microsomes following a similar procedure as described above for human liver microsomes. A similar procedure could be used to evaluate compounds in rat liver microsomes.

SREBP = experiment: Reporter Screening Assay (SRE-luciferase reporter, HepG2); format: cell-based; settings: Homo sapiens; SRE-luciferase reporter HepG2 cells, 24 hours, 0.01 uM to 10 uM; read-out: I: Reporter Screening Assay (Ave EC50 (nM))
Description: Reporter Screening Assay: This assay was used to evaluate the effect on transcriptional activity SREBP of selected compounds using an SRE-luciferase reporter construct. On day 1, 10,000 cells were seeded in a 96 well (white) plate as per the plate map in Growth media without antibiotics. Cells were incubated at 37° C. for 8 hours. After 8 hours, cells were washed with DPBS for complete removal of FBS. DPBS was completely removed and Growth media was replaced with phenol free treatment medium (90 μl) with different FBS concentrations. The cells were then incubated at 37° C. for 24 hours with varying doses (0.01 uM to 10 uM) of compounds. Then a Luciferase assay was performed.
Reagents for performing Luciferase assay were stored at −20° C. To a tube of lyophilized assay substrate was added 1 mL Substrate Solvent and mixed well. The Substrate tube after reconstitution was covered with aluminum foil so as to keep it protected from light. The assay buffer was thawed to room temperature. To 20 mL Assay Buffer was added 200 μL of reconstituted 100× Substrate and mixed well. The reconstituted substrate as well as the assay solution (buffer+substrate) was protected from light throughout the procedure by keeping it covered with aluminum foil. Using a multi-channel pipette, 100 μL Assay Solution (buffer+substrate) was added directly to each sample well in Plate 1, which was incubated for 30 min (plate was covered with aluminum foil). After 30 min incubation, the plate was read for total luminescence. Each well was read for 2 seconds in a plate luminometer. (Microplate reader Envision Microplate reader from Perkin Elmer). Precaution was taken to incubate plate exactly for 30 min prior to reading on the plate reader.
SREBPv1 Reporter cell line: HepG2—#32251. Growth Medium: MEM (Corning 10-010), 10% FBS, 1% GlutaMax (Invitrogen Catalog #35050061), […] (Invitrogen Catalog # A1113803) and 1% Penicillin-Streptomycin (Pen-Strep). Treatment Media: Phenol-free MEM (Invitrogen Catalog #51200-038) and 1% GlutaMax (Invitrogen Catalog #35050061). Luciferase Assay: LightSwitch Luciferase Assay Kit (Catalog #32032). LDH assay: Pierce LDH Cytotoxicity Assay Kit (Catalog # SD249616).

CC(C)(C)c1cc(-c2csc(-c3ccc(NC(=O)N4CCC(O)CC4)cc3Cl)c2)ccn1 [Compound I-8736, N-(4-(4-(2-(tert-butyl)pyridin-4-yl)thiophen-2-yl)-3-chlorophenyl)-4-hydroxypiperidine-1-carboxamide]
percent of compound remaining after 60 min in human liver microsomes [1]: +++ (>60.1 = +++)
percent parent remaining after 60 min in liver microsomes [2]: +++ (>60.1 = +++)
EC50 (SREBP): 250 to 500 nM

O=C(Nc1ccc(-c2cc(-c3ccnc(C4(CO)CC4)c3)cs2)c(Cl)c1)OC1CC1 [Compound I-9082, cyclopropyl (3-chloro-4-(4-(2-(1-(hydroxymethyl)cyclopropyl)pyridin-4-yl)thiophen-2-yl)phenyl)carbamate]
percent of compound remaining after 60 min in human liver microsomes [1]: +++ (>60.1 = +++)
percent parent remaining after 60 min in liver microsomes [2]: ++ (30.1-60 = ++)
EC50 (SREBP): > 500 nM

CC(C)(CO)c1cc(-c2csc(-c3ccc(NC(=O)OC4CC4)cc3Cl)c2)ccn1 [Compound I-8918, Cyclopropyl (3-chloro-4-(4-(2-(1-hydroxy-2-methylpropan-2-yl)pyridin-4-yl)thiophen-2-yl)phenyl)carbamate]
percent of compound remaining after 60 min in human liver microsomes [1]: +++ (>60.1 = +++)
percent parent remaining after 60 min in liver microsomes [2]: ++ (30.1-60 = ++)
EC50 (SREBP): 250 to 500 nM

CN(C(=O)OC1CC1)c1ccc(-c2cc(-c3ccnc(C4CC4)c3)cs2)c(Cl)c1 [Compound I-9038, cyclopropyl (3-chloro-4-(4-(2-cyclopropylpyridin-4-yl)thiophen-2-yl)phenyl)(methyl)carbamate]
percent of compound remaining after 60 min in human liver microsomes [1]: +++ (>60.1 = +++)
percent parent remaining after 60 min in liver microsomes [2]: +++ (>60.1 = +++)
EC50 (SREBP): < 249 nM

CC(C)OC(=O)Nc1ccc(-c2cc(-c3ccnc(C(C)(C)CO)c3)cs2)c(Cl)c1 [Compound I-8907, Isopropyl (3-chloro-4-(4-(2-(1-hydroxy-2-methylpropan-2-yl)pyridin-4-yl)thiophen-2-yl)phenyl)carbamate]
percent of compound remaining after 60 min in human liver microsomes [1]: +++ (>60.1 = +++)
percent parent remaining after 60 min in liver microsomes [2]: +++ (>60.1 = +++)
EC50 (SREBP): 250 to 500 nM

CC(C)OC(=O)Nc1ccc(-c2cc(-c3ccnc(C4CC4)c3)cs2)c(Cl)c1 [Compound I-8966, Isopropyl (3-chloro-4-(4-(2-cyclopropylpyridin-4-yl)thiophen-2-yl)phenyl)carbamate]
percent of compound remaining after 60 min in human liver microsomes [1]: +++ (>60.1 = +++)
percent parent remaining after 60 min in liver microsomes [2]: +++ (>60.1 = +++)
EC50 (SREBP): < 249 nM

CS(=O)(=O)Nc1ccc(-c2cc(-c3ccnc(C4(CO)CC4)c3)cs2)c(Cl)c1 [Compound I-9002, N-(3-chloro-4-(4-(2-(1-(hydroxymethyl)cyclopropyl)pyridin-4-yl)thiophen-2-yl)phenyl)methanesulfonamide]
percent of compound remaining after 60 min in human liver microsomes [1]: +++ (>60.1 = +++)
percent parent remaining after 60 min in liver microsomes [2]: +++ (>60.1 = +++)
EC50 (SREBP): < 249 nM
